This note sets out measurements from US10065990B2, “Cyclic peptide compound, and preparation method, pharmaceutical composition and use thereof” (HANGZHOU GUANYU BIO-MEDICAL CO., LTD, priority 2013, dated 2018).

For one assay, the target named is T1, HDAC7 (Homo sapiens, UniProt Q8WUI4).
T1 sequence (Q8WUI4 1-952): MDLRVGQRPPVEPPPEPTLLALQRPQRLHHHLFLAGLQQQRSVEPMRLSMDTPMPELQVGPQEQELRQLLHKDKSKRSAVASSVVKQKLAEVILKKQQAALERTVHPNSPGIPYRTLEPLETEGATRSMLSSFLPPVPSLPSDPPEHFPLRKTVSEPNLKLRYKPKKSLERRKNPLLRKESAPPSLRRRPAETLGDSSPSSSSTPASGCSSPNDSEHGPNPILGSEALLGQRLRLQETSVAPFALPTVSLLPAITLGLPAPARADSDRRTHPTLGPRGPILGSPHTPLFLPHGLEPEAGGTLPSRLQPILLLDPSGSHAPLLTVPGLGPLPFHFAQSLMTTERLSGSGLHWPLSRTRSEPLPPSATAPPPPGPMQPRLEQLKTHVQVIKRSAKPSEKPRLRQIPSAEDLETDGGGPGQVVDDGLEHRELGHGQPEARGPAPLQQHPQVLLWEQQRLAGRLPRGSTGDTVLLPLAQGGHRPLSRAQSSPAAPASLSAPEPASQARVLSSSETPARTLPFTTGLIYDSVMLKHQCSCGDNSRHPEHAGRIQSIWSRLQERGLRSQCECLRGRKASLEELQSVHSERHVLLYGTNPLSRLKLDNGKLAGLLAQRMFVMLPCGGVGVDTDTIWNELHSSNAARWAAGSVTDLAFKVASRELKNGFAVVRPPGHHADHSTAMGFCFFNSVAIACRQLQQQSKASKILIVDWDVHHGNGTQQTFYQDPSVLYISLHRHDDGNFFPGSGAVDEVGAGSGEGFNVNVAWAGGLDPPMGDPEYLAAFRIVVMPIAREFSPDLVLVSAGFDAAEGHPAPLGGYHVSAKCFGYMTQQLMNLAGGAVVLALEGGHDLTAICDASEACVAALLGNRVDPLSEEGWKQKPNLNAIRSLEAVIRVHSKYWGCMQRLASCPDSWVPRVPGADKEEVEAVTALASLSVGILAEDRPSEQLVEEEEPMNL
Briefly: HDAC biochemical activity measurement (fluorescent substrate deacetylation).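 On all read-outs here: fluorogenic deacetylation assay using acetyl-lysine substrate at 20 µM, enzyme and compound incubated 30 min at 37 °C, then developer added, fluorescence read at 360/460 nm.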 To be noted: for IC50 HDAC7: 37° C. 30 minutes.

For assay [1], the system named is A549 (human lung cancer cells). Briefly: MTT cancer cell growth inhibition. The class given is cell-based. To be noted: Homo sapiens, A549, 72 h, MTT, 72 hours incubation, read-out: GI50 A54. In outline: (§1)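 Absorbance at 570 nm of DMSO-dissolved formazan, formed during a 4 h MTT incubation, served as the viability measure. Cells had been exposed 72 h to drug at 10^−5–10^−10 M final; GI50 was calculated from these readings.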

In assay [2] the test system is BGC-823 (human gastric cancer cells). The assay is described as follows: MTT cancer cell growth inhibition. The class given is cell-based. To be noted: Homo sapiens, BGC-823, 72 h, MTT, 72 hours incubation, read-out: GI50 BG. In outline:
as §1

Assay [3] concerns Bel-7402 (human hepatoma cells). Briefly: MTT cancer cell growth inhibition. The class given is cell-based. To be noted: Homo sapiens, Bel-7402, 72 h, MTT, 72 hours incubation, Bel-7402 cells; read-out: GI50 Bel-7402. In outline:
as §1

For assay [4], the system named is DU145 (human prostate cancer cells). Briefly: MTT cancer cell growth inhibition. To be noted: Homo sapiens, DU-145, 72 h, MTT, 72 hours incubation, read-out: GI50 Du1. The class given is cell-based. In outline:
as §1

Assay [5] relates to H1975 (non-small cell lung adenocarcinoma). Briefly: MTT cancer cell growth inhibition. The class given is cell-based. To be noted: Homo sapiens, NCI-H1975, 72 h, MTT, 72 hours incubation, H1975 cells; read-out: GI50 H1975. In outline: as §1
Assay [6] deals with HCC827 (human non-small cell lung cancer cells). The assay is described as follows: MTT cancer cell growth inhibition. To be noted: Homo sapiens, HCC827, 72 h, MTT, 72 hours incubation, HCC827 cells; read-out: GI50 HCC827. The class given is cell-based. In outline:
as §1

Assay [7] relates to HT1080 (human fibrosarcoma cells). Briefly: MTT cancer cell growth inhibition. The class given is cell-based. To be noted: Homo sapiens, HT-1080, 72 h, MTT, 72 hours incubation, read-out: GI50 HT1. In outline: as §1
The test system of assay [8] is Hela (human cervical cancer cells). Briefly: MTT cancer cell growth inhibition. The class given is cell-based. To be noted: Homo sapiens, HeLa, 72 h, MTT, 72 hours incubation, read-out: GI50 Hela. In outline:
as §1

The subject of assay [9] is Huh-7 (human hepatoma cells). Briefly: MTT cancer cell growth inhibition. The class given is cell-based. To be noted: Homo sapiens, Huh-7, 72 h, MTT, 72 hours incubation, Huh-7 cells; read-out: GI50 Huh-7. In outline: as §1
Assay [10] has as its system K562 (human leukemia cells). Briefly: MTT cancer cell growth inhibition. The class given is cell-based. To be noted: Homo sapiens, K562, 72 h, MTT, 72 hours incubation, K562 cells; read-out: GI50 K562. In outline:
as §1

In assay [11] the test system is KBM-5 (human chronic myelogenous leukemia). The assay is described as follows: MTT cancer cell growth inhibition. The class given is cell-based. To be noted: Homo sapiens, KBM5, 72 h, MTT, 72 hours incubation, KBM-5 cells; read-out: GI50 KBM-5. In outline:
as §1

The subject of assay [12] is KBM5-T315I (human chronic myelogenous leukemia). The assay is described as follows: MTT cancer cell growth inhibition. To be noted: Homo sapiens, 72 h, MTT, 72 hours incubation, KBM5-T315I cells; read-out: GI50 KBM5-T315I. The class given is cell-based. In outline:
as §1

Assay [13] deals with MCF-7 (human breast cancer cells). The assay is described as follows: MTT cancer cell growth inhibition. The class given is cell-based. To be noted: Homo sapiens, MCF7, 72 h, 72 hours incubation, read-out: GI50 MCF. In outline: as §1
In assay [14] the test system is MDA-MB-231 (breast cancer cells). The assay is described as follows: MTT cancer cell growth inhibition. The class given is cell-based. To be noted: Homo sapiens, MDA-MB-231, 72 h, read-out: GI50 MDA-MB-231, MTT, 72 hours incubation, MDA-MB-231 cells. In outline: as §1
Assay [15] deals with MOLT-4 (human acute lymphoblastic leukemia cells). The assay is described as follows: MTT cancer cell growth inhibition. The class given is cell-based. To be noted: Homo sapiens, MOLT-4, 72 h, MTT, 72 hours incubation, read-out: GI50 Mol. In outline:
as §1

Assay [16] deals with N-87 (human gastric cancer cells). The assay is described as follows: MTT cancer cell growth inhibition. The class given is cell-based. To be noted: Homo sapiens, 72 h, MTT, 72 hours incubation, N-87 cells; read-out: GI50 N-87. In outline:
as §1

Assay [17] relates to PANC-1 (Pac-1, human pancreatic cancer cells). Briefly: MTT cancer cell growth inhibition. The class given is cell-based. To be noted: Homo sapiens, PANC-1, 72 h, MTT, 72 hours incubation, read-out: GI50 PAN. In outline: as §1
The test system of assay [18] is SGC-7901 (human gastric cancer cells). The assay is described as follows: MTT cancer cell growth inhibition. The class given is cell-based. To be noted: Homo sapiens, SGC-7901, 72 h, MTT, 72 hours incubation, SGC-7901 cells; read-out: GI50 SGC-7901. In outline:
as §1

The test system of assay [19] is U937 (human leukemia cells). Briefly: MTT cancer cell growth inhibition. The class given is cell-based. To be noted: Homo sapiens, U-937, 72 h, MTT, 72 hours incubation, read-out: GI50 U93. In outline:
as §1

In assay [20] the test system is lncap (prostate cancer cells). The assay is described as follows: MTT cancer cell growth inhibition. The class given is cell-based. To be noted: Homo sapiens, LNCaP, 72 h, MTT, 72 hours incubation, read-out: GI50 lnca. In outline: as §1

Like-named read-outs stand apart in the source and are kept apart here.

Broadly, the GI50 is the concentration that inhibits growth by half.

Regarding `C/C=C1\NC(=O)c2ccc(SCC)c(n2)CNC(=O)C[C@@H](/C=C/CCSC(=O)CCCCCCC)OC(=O)[C@H](C(C)C)NC1=O` [Compound 249], the “IC50 (μM) HDAC7” value at HDAC7 is recorded as “no activity”. Further, the GI50 in assay [1] (A549 cells) was 0.05 µM; in assay [2] (BGC-823 cells) it was 0.03 µM; in assay [3], 0.041 µM; in [4] (DU145 cells) it was 0.03 µM; in [5] it was 0.076 µM; in [6] it was 0.023 µM. For the same compound, the GI50 was found to be 0.04 µM in assay [7] (HT1080 cells); 0.08 µM in assay [8] (Hela cells); 0.043 µM in assay [9]; 0.072 µM in [10]; 0.047 µM in [11]; 0.027 µM in assay [12]. Besides, the concentration for 50% growth inhibition (GI50) stood at 0.07 µM in assay [13] (MCF-7 cells); 0.029 µM in [14]; 0.05 µM in [15] (MOLT-4 cells); 0.045 µM in assay [16]; 0.02 µM in [17] (PANC-1 cells); 0.033 µM in assay [18]. The GI50 in [19] (U937 cells) came to 0.07 µM; in [20] (lncap cells), 0.04 µM.
On to `C/C=C1\NC(=O)c2nc(ccc2F)CNC(=O)C[C@@H](/C=C/CCSC(C)=O)OC(=O)[C@H](CCCCNC(=O)OCC2c3ccccc3-c3ccccc32)NC1=O` [Example 75], for which the “IC50 HDAC7” value at HDAC7 was “no activity”. Besides, the GI50 in [1] is 0.04 µM; in [2], 0.02 µM; in assay [3], 0.042 µM; in assay [4], 0.02 µM; in assay [5], 0.028 µM; in assay [6], 0.042 µM. The GI50 was determined as 0.04 µM in assay [7]; 0.06 µM in assay [8]; 0.035 µM in assay [9]; 0.028 µM in assay [10]; 0.061 µM in assay [11]; 0.026 µM in [12]. In addition, the concentration for 50% growth inhibition (GI50) was found to be 0.02 µM in assay [13]; 0.035 µM in assay [14]; 0.03 µM in assay [15]; 0.022 µM in [16]; 0.04 µM in assay [17]; 0.041 µM in assay [18]. Moreover, the 50% growth inhibitory concentration (GI50) in [19] was determined as 0.02 µM; in [20], 0.03 µM.
For the compound `C/C=C1\NC(=O)c2nc(ccc2SC)CNC(=O)C[C@@H](/C=C/CCS)OC(=O)[C@H](C(C)C)NC1=O` [Compound 226], the “IC50 HDAC7” value against HDAC7 is “no activity”. In addition, the GI50 in assay [1] (A549 cells) is 0.06 µM; in assay [2] (BGC-823 cells) it was 0.05 µM; in [3], 0.031 µM; in assay [4] (DU145 cells), 0.03 µM; in assay [5] it was 0.037 µM; in assay [6], 0.033 µM. Further, the 50% growth inhibitory concentration (GI50) was determined as 0.02 µM in [7] (HT1080 cells); 0.09 µM in [8] (Hela cells); 0.068 µM in [9]; 0.061 µM in assay [10]; 0.075 µM in [11]; 0.065 µM in assay [12]. Moreover, the concentration for 50% growth inhibition (GI50) came to 0.02 µM in assay [13] (MCF-7 cells); 0.034 µM in assay [14]; 0.03 µM in [15] (MOLT-4 cells); 0.035 µM in assay [16]; 0.02 µM in [17] (PANC-1 cells); 0.023 µM in assay [18]. Further, the values for the GI50 in assay [19] (U937 cells) and in assay [20] (lncap cells) were 0.04 µM and 0.03 µM, respectively.
For `C/C=C1\NC(=O)c2nc(ccc2F)CNC(=O)C[C@@H](/C=C/CCSC(C)=O)OC(=O)[C@@H](C)NC1=O` [Compound 100], at HDAC7, the “IC50 HDAC7” value is “no activity”. Besides, the GI50 stood at 0.05 µM in assay [1]; 0.02 µM in assay [2]; 0.071 µM in assay [3]; 0.02 µM in [4]; 0.053 µM in assay [5]; 0.017 µM in assay [6]. In addition, the GI50 in [7] came out at 0.09 µM; in assay [8], 0.07 µM; in assay [9] it was 0.027 µM; in [10], 0.034 µM; in [11], 0.035 µM; in assay [12], 0.031 µM. Also, the GI50 in assay [13] turned out to be 0.02 µM; in [14], 0.078 µM; in [15], 0.03 µM; in [16] it was 0.032 µM; in assay [17], 0.09 µM; in assay [18] it was 0.057 µM. The figures for the GI50 in [19] and in assay [20] were 0.06 µM and 0.03 µM, respectively.
